Common to all, as to type: cell-based
One data set relates to HBeAg. Description: PHH HBV natural infection assay, HBeAg (alphalisa). Here is the method: (§1) Detailed procedures regarding primary human hepatocyte (PHH) HBV natural infection assay are described as below. One tube of frozen PHH (10 million cells) is thawed in 37° C. water bath and then transferred to 20 mL of PHH thawing medium (Sigma, InVitroGRO HT Medium, Cat. S03319) with gently mixing. The cells were then centrifuged at […] for 5 min, the supernatant was discarded and the tube was refilled with 25 mL of PHH plating medium (Sigma, InVitroGRO CP Medium, Cat. S03317). The tube was shaken very gently to re-suspend all cells, and then 50 μl of cells were transferred to each well 384-well collagen I coated plate with appropriate liquid handling equipment, e.g. Integra VIAFLO384 or Agilent Bravo. The cells were then cultured for 24 hours in a cell incubator. For HBV infection, after PHH attachment on the culture plate, the plating medium was removed and replenished with PHH culture medium containing HBV virus. The PHH culture medium was prepared with Dulbecco's Modified Eagle Medium (DMEM)/F12 (1:1 in volume ratio) containing 10% fetal bovine serum (Gibco, Cat. 10099141), 5 ng/mL human epidermal growth factor (Gibco, Cat.PHG0311L), 20 ng/mL dexamethasone (Sigma, Cat.D4902-100 mg), 250 ng/mL human recombinant insulin (Gibco, Cat.41400045) and 100 U/mL penicillin. HBV virus at 200 genome equivalent (GE) per cell with 4% PEG8000 (Sigma, Cat.P1458) containing culture medium were added to the PHH culture medium for infection. The cells were then cultured for 24 hours in cell incubator. Then the cell culture supernatant was removed. The HBV-infected PHH were cultured with sandwich culture method with PHH culture medium containing 1% DMSO and 0.25 mg/mL matrix gel for 72 hours. The supernatant was then refreshed with PHH culture medium containing different concentrations of testing compounds for two times with 72-hour interval. At the end of treatment, the supernatant was collected for viral markers measurements, including HBsAg, HBeAg, HBV DNA and cytotoxicity. HBsAg and HBeAg were detected using alphalisa method using their specific antibodies. For HBV DNA detection, HBV DNA Quantitative Fluorescence Diagnostic Kit (Sansure Biotech Inc.) was used following the manufacture's protocol. Cytotoxicity was determined using Cell Counting Kit-8 (CCK8, Dojindo Molecular Technologies, Inc.).
(§2) The compounds of the present invention were tested for their capacity to inhibit HBsAg and HBeAg as described herein.
A general note: In Alpha technology, singlet oxygen from a donor bead excites a nearby acceptor bead.

Data set [1] is described as follows: PHH natural infection assay, cytotoxicity (Cell Counting Kit-8). As to conditions: human, HBV-infected primary human hepatocytes, CCK8, end of treatment. Here is the method: as §1
A general note: Tetrazolium dyes change colour on reduction, which living cells bring about.

The test system of the next data set is HBsAg. The data set is described as follows: PHH HBV natural infection assay, HBsAg (alphalisa). Here is the method:
as §1, §2

The mark [2] stands for this setting: Hepatitis B virus, Hepatocyte, 72 h, read-out: HbeAg IC50, HBV-infected primary human hepatocytes, supernatant, compound medium refreshed two times with 72-hour interval.
The mark [3] stands for this setting: Hepatitis B virus, Hepatocyte, 72 h, read-out: HBsAg IC50, HBV-infected primary human hepatocytes, supernatant, compound medium refreshed two times with 72-hour interval.

Read-outs that look alike come from different tables or passages of the source.

A word on the IC50: it is the concentration that inhibits the measured activity by half. A word on the CC50: it is the concentration at which the toxic effect on the cells reaches its halfway point.

As for `N=S(=O)(CC1COC1)c1ccc(C(=O)NC2CC3(C2)CC(c2nc4cc(Cl)ccc4o2)C3)o1` (stereo not drawn) [Example 56, N-[6-(5-chloro-1,3-benzoxazol-2-yl)spiro[3.3]heptan-2-yl]-5-(oxetan-3-ylmethylsulfonimidoyl)furan-2-carboxamide], the IC50 is 2.9 µM in the data set on HBeAg (setting [2]) and 4.41 µM in the data set with HBsAg (setting [3]). The CC50 at 144 h in data set [1] is above 100 µM.

On to `O=C(NC1CC2(C1)CC(c1nc3cc(Cl)ccc3o1)C2)c1ccc(S(=O)(=O)CC2CC(F)(F)C2)o1` (stereo not drawn) [Example 27, N-[6-(5-chloro-1,3-benzoxazol-2-yl)spiro[3.3]heptan-2-yl]-5-[(3,3-difluorocyclobutyl)methylsulfonyl]furan-2-carboxamide], for which the IC50 in the data set on HBeAg (setting [2]) is 0.116 µM; in the data set with HBsAg (setting [3]), 0.152 µM. This compound returned a CC50 at 144 h in data set [1] above 100 µM.

For the compound `CS(=O)(=O)c1ccc(C(=O)NC2CC3(C2)CC(c2nc4cc(Cl)cnc4o2)C3)o1` (stereo not drawn) [Example 48, N-[6-(6-chlorooxazolo[5,4-b]pyridin-2-yl)spiro[3.3]heptan-2-yl]-5-methylsulfonyl-furan-2-carboxamide], the IC50 was determined as 1.82 µM with HBeAg (setting [2]) and 2.4 µM with HBsAg (setting [3]). Further, the CC50 at 144 h in data set [1] is above 100 µM.

With `CC(C)C(=O)NS(=O)(=O)c1ccc(C(=O)N[C@H]2CC3(C2)C[C@H](c2nc4cc(Cl)ccc4o2)C3)o1` (single isomer, unassigned) [Example 70, (Sa)—N-[6-(5-chloro-1,3-benzoxazol-2-yl)spiro[3.3]heptan-2-yl]-5-(2-methylpropanoylsulfamoyl)furan-2-carboxamide, or (Ra)—N-[6-(5-chloro-1,3-benzoxazol-2-yl)spiro[3.3]heptan-2-yl]-5-(2-methylpropanoylsulfamoyl)furan-2-carboxamide], the IC50 is 0.376 µM in the data set on HBeAg (setting [2]) and 0.361 µM with HBsAg (setting [3]). The compound further displayed a CC50 at 144 h in data set [1] above 100 µM.

For `O=C(NC1CC2(C1)CC(c1nc3cc(Cl)ccc3o1)C2)c1ccc(S(=O)(=O)CC2COC2)o1` (stereo not drawn) [Example 24, N-[6-(5-chloro-1,3-benzoxazol-2-yl)spiro[3.3]heptan-2-yl]-5-(oxetan-3-ylmethylsulfonyl)furan-2-carboxamide], the IC50 amounted to 2.33 µM with HBeAg (setting [2]) and 2.44 µM in the data set on HBsAg (setting [3]). In data set [1], this compound returned a CC50 at 144 h of 95.3 µM.

For the compound `CS(=O)(=O)Cc1ccc(C(=O)NC2CC3(C2)CC(c2nc4cc(Cl)ccc4o2)C3)o1` (stereo not drawn) [Example 30, N-[6-(5-chloro-1,3-benzoxazol-2-yl)spiro[3.3]heptan-2-yl]-5-(methylsulfonylmethyl)furan-2-carboxamide], the IC50 in the data set on HBeAg (setting [2]) was determined as 2.17 µM; with HBsAg (setting [3]) it was 3.97 µM. Further, the CC50 at 144 h in data set [1] is above 100 µM.

Take `O=C(NC1CC2(C1)CC(c1nc3cc(Cl)ccc3o1)C2)c1ccc(S2(=O)=NCCCC2)o1` (stereo not drawn) [Example 62, N-[6-(5-chloro-1,3-benzoxazol-2-yl)spiro[3.3]heptan-2-yl]-5-(1-oxo-1lambda6-thia-2-azacyclohexen-1-yl)furan-2-carboxamide]: the IC50 in the data set on HBeAg (setting [2]) was 4.85 µM; in the data set on HBsAg (setting [3]), 5.01 µM. In data set [1], the CC50 at 144 h is above 100 µM.

In the case of `O=C(NC1CC2(C1)CC(c1nc3cc(Cl)cnc3o1)C2)c1ccc(S(=O)(=O)C2CC2)o1` (stereo not drawn) [Example 49, N-[6-(6-chlorooxazolo[5,4-b]pyridin-2-yl)spiro[3.3]heptan-2-yl]-5-cyclopropylsulfonyl-furan-2-carboxamide], the IC50 in the data set with HBeAg (setting [2]) amounted to 1.74 µM; in the data set with HBsAg (setting [3]), 2.4 µM. This compound returned a CC50 at 144 h in data set [1] of 84.5 µM.

In the case of `N#Cc1ccc(C(=O)NC2CC3(C2)CC(c2nc4cc(Cl)ccc4o2)C3)o1` (stereo not drawn) [Example 2, N-[6-(5-chloro-1,3-benzoxazol-2-yl)spiro[3.3]heptan-2-yl]-5-cyano-furan-2-carboxamide], the figures for the IC50 in the data set on HBeAg (setting [2]) and in the data set with HBsAg (setting [3]) were 4.06 µM and 5.86 µM, respectively. Besides, half-maximal cytotoxicity in data set [1] (CC50 at 144 h) was put at 61.6 µM.

As for `NS(=O)(=O)c1ccc(C(=O)NC2CC3(C2)CC(c2nc4cc(Cl)ccc4o2)C3)o1` (single isomer, unassigned) [Example 29-a, N-[6-(5-chloro-1,3-benzoxazol-2-yl)spiro[3.3]heptan-2-yl]-5-sulfamoyl-furan-2-carboxamide], the IC50 worked out at 2.28 µM in the data set with HBeAg (read-out: HbeAg IC50, HBV-infected primary human hepatocytes, supernatant, compound medium refreshed two times with 72-hour interval) and 5.12 µM in the data set with HBsAg (read-out: HBsAg IC50, HBV-infected primary human hepatocytes, supernatant, compound medium refreshed two times with 72-hour interval). Moreover, the CC50 at 144 h in data set [1] was above 100 µM.

As for `N=S(=O)(c1ccc(C(=O)NC2CC3(C2)CC(c2nc4cnc(Cl)cc4o2)C3)o1)C1CC1` (stereo not drawn) [Example 65, N-[6-(6-chlorooxazolo[4,5-c]pyridin-2-yl)spiro[3.3]heptan-2-yl]-5-(cyclopropylsulfonimidoyl)furan-2-carboxamide], the IC50 came to 5.83 µM in the data set on HBeAg (setting [2]) and 6.38 µM in the data set with HBsAg (setting [3]). This compound also gave a CC50 at 144 h in data set [1] above 100 µM.

Take `O=C(NC1CC2(C1)CC(c1nc3cc(Cl)ccc3o1)C2)c1ccc(S(=O)(=O)CC2CN(C(=O)OCc3ccccc3)C2)o1` (stereo not drawn) [Example 26, benzyl 3-[[5-[[6-(5-chloro-1,3-benzoxazol-2-yl)spiro[3.3]heptan-2-yl]carbamoyl]-2-furyl]sulfonylmethyl]azetidine-1-carboxylate]: the IC50 was 0.329 µM with HBeAg (setting [2]) and 0.365 µM in the data set on HBsAg (setting [3]). The CC50 at 144 h in data set [1] was above 100 µM.

For the compound `O=C(NC1CC2(C1)CC(c1nc3cc(Cl)ccc3o1)C2)c1ccc(S(=O)(=O)NC(=O)C2CCS(=O)(=O)C2)o1` (stereo not drawn) [Example 84, N-[6-(5-chloro-1,3-benzoxazol-2-yl)spiro[3.3]heptan-2-yl]-5-[(1,1-dioxothiolane-3-carbonyl)sulfamoyl]furan-2-carboxamide], the values for the IC50 in the data set with HBeAg (setting [2]) and in the data set on HBsAg (setting [3]) were 6.32 µM and 9 µM, respectively. The CC50 at 144 h in data set [1] was above 10 µM.

As for `CS(=N)(=O)c1ccc(C(=O)NC2CC3(C2)CC(c2nc4cc(Cl)ccc4o2)C3)o1` (stereo not drawn) [Example 52, N-[6-(5-chloro-1,3-benzoxazol-2-yl)spiro[3.3]heptan-2-yl]-5-(methylsulfonimidoyl)furan-2-carboxamide], the IC50 with HBeAg (setting [2]) was 1.2 µM; in the data set on HBsAg (setting [3]), 1.7 µM. The CC50 at 144 h in data set [1] was 72 µM.

As to `NS(=O)(=O)CCc1ccc(C(=O)NC2CC3(C2)CC(c2nc4cc(Cl)ccc4o2)C3)o1` (stereo not drawn) [Example 34, N-[6-(5-chloro-1,3-benzoxazol-2-yl)spiro[3.3]heptan-2-yl]-5-(2-sulfamoylethyl)furan-2-carboxamide], the IC50 with HBeAg (setting [2]) was found to be 5.84 µM; in the data set with HBsAg (setting [3]), 8.78 µM. In data set [1], this compound yielded a CC50 at 144 h above 100 µM.

In the case of `N=S(=O)(CC1CC(F)(F)C1)c1ccc(C(=O)NC2CC3(C2)CC(c2nc4cc(Cl)ccc4o2)C3)o1` (stereo not drawn) [Example 57, N-[6-(5-chloro-1,3-benzoxazol-2-yl)spiro[3.3]heptan-2-yl]-5-[(3,3-difluorocyclobutyl)methylsulfonimidoyl]furan-2-carboxamide], the IC50 with HBeAg (setting [2]) turned out to be 0.754 µM; in the data set on HBsAg (setting [3]), 0.884 µM. Half-maximal cytotoxicity in data set [1] (CC50 at 144 h) was put at 81.9 µM.

For the compound `COC(=O)CCC(=O)NS(=O)(=O)c1ccc(C(=O)N[C@H]2CC3(C2)C[C@H](c2nc4cc(Cl)ccc4o2)C3)o1` (single isomer, unassigned) [Example 75, (Sa)-methyl 4-[[5-[[6-(5-chloro-1,3-benzoxazol-2-yl)spiro[3.3]heptan-2-yl]carbamoyl]-2-furyl]sulfonylamino]-4-oxo-butanoate, or (Ra)-methyl 4-[[5-[[6-(5-chloro-1,3-benzoxazol-2-yl)spiro[3.3]heptan-2-yl]carbamoyl]-2-furyl]sulfonylamino]-4-oxo-butanoate], the IC50 stood at 1.69 µM in the data set on HBeAg (setting [2]) and 2.49 µM in the data set on HBsAg (setting [3]). Moreover, the CC50 at 144 h in data set [1] is above 10 µM.

The values above are taken from patent US20230286969A1, “AROMATIC SPIRO RING AMIDE DERIVATIVES FOR THE TREATMENT AND PROPHYLAXIS OF HEPATITIS B VIRUS INFECTION” (Hoffmann-La Roche Inc., priority 2020, published 2023).
